The source of these data is ChEMBL document CHEMBL5465560, “Selectivity Literature for EUbOPEN Chemogenomic Library” (2024).

For test [1], the target named is High affinity nerve growth factor receptor (Homo sapiens, UniProt P04629). The note with it: at 10 µM.
In test [2] the target is T1, Serine/threonine-protein kinase DCLK3 (Homo sapiens) (UniProt Q9C098).
T1 sequence (whole entry): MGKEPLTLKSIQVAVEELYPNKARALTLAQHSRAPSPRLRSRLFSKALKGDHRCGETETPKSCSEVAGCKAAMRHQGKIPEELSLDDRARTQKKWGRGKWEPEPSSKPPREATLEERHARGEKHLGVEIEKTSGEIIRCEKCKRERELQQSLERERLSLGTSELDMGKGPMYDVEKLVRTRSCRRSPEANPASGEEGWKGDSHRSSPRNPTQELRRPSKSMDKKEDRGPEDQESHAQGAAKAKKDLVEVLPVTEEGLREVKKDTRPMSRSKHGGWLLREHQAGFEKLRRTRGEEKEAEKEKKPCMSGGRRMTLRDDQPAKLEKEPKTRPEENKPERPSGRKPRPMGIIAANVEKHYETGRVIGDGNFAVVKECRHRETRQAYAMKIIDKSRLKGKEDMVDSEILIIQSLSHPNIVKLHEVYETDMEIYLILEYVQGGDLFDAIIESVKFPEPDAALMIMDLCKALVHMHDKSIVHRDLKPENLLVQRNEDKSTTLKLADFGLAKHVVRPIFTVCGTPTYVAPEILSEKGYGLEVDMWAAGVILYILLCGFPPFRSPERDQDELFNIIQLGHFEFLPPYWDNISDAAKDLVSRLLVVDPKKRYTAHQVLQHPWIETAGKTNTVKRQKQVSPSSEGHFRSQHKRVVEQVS
In words: Selectivity interaction (KinomeScan (DiscoverX)) EUB0000666a DCLK3. The note with it: at 10 µM.

The target in test [3] is Cyclin-dependent kinase 13 (Homo sapiens, UniProt Q14004). Briefly: Selectivity interaction (KinomeScan (DiscoverX)) EUB0000666a CDK13. The note with it: at 10 µM.
The target of test [4] is T2, Megakaryocyte-associated tyrosine-protein kinase (Homo sapiens) (UniProt P42679).
T2 sequence (whole entry): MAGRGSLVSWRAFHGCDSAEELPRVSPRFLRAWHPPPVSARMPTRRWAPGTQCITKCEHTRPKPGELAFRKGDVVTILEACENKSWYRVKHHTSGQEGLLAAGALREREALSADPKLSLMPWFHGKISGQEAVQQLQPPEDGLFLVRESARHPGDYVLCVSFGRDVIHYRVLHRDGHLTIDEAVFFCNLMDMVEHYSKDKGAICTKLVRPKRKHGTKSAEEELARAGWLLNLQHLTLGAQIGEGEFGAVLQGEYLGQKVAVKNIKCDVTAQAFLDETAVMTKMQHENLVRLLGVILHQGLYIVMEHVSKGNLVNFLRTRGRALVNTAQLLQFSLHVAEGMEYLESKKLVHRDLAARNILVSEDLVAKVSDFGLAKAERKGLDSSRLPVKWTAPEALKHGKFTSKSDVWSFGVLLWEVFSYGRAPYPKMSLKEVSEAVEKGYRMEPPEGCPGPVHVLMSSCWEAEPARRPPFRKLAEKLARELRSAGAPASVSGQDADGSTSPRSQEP
The note with it: at 10 µM.

For test [5], the system named is Epidermal growth factor receptor (Homo sapiens), P00533 [UNDEFINED MUTATION]. The note with it: at 10 µM.
The next test has as its target Activated CDC42 kinase 1 (Homo sapiens, UniProt Q07912). In words: Selectivity interaction (Kinase panel (Invitrogen)) EUB0000639a TNK2. Particulars: at 200 nM.
In test [6] the target is T3, Uncharacterized serine/threonine-protein kinase SBK3 (Homo sapiens) (UniProt P0C264).
T3 sequence (whole entry): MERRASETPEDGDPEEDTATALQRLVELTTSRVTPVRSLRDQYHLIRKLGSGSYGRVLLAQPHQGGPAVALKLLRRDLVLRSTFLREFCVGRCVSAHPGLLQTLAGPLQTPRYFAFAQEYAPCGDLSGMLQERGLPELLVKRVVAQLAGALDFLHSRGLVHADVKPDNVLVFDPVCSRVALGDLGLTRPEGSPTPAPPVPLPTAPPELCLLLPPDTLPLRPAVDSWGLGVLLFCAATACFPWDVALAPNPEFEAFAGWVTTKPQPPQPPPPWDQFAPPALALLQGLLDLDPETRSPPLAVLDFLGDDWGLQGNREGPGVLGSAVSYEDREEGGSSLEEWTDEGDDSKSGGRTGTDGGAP
Briefly: Selectivity interaction (KinomeScan (DiscoverX)) EUB0000045b SBK3.

For test [7], the target named is Mitogen-activated protein kinase 14 (Homo sapiens, UniProt Q16539). In words: Selectivity interaction (ProQinase) EUB0000171b MAPK14.
Test [8] has as its target Cyclin-dependent kinase 4/cyclin D1 (Homo sapiens, UniProt P11802).
For test [9], the target named is Mitogen-activated protein kinase kinase kinase 1 (Homo sapiens, UniProt Q13233). In words: Selectivity interaction (KinomeScan (DiscoverX)) EUB0001049a MAP3K1. Particulars: at 1 µM.
The target in test [10] is Serine/threonine-protein kinase PAK 4 (Homo sapiens, UniProt O96013). In words: Selectivity interaction (KinomeScan (DiscoverX)) EUB0000655a PAK4. Particulars: at 10 µM.
Test [11] deals with T4, 3-phosphoinositide-dependent protein kinase 1 (Homo sapiens) (UniProt O15530).
T4 sequence (whole entry): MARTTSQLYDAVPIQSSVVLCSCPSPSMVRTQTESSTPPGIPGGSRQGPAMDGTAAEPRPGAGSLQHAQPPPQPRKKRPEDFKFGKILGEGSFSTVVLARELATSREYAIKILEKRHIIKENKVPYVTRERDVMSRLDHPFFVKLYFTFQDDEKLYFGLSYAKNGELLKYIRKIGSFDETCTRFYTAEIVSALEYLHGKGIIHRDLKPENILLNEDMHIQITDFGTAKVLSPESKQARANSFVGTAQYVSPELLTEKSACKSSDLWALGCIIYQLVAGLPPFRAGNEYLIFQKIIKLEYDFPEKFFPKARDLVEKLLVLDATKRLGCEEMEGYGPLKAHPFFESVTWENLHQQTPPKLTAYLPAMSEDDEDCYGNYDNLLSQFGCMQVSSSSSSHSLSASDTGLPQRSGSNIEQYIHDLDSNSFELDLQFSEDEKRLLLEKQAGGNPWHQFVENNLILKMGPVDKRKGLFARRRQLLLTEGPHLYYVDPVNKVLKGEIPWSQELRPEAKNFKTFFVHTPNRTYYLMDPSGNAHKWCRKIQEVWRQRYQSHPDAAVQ
Briefly: Selectivity interaction (KinomeScan (DiscoverX)) EUB0000655a PDPK1. The note with it: at 10 µM.

The target in test [12] is MAP kinase-activated protein kinase 2 (Homo sapiens, UniProt P49137). Briefly: Selectivity interaction (KinomeScan (DiscoverX)) EUB0000092b MAPKAPK2. Particulars: at 10 µM.
For test [13], the target named is Homeodomain-interacting protein kinase 2 (Homo sapiens, UniProt Q9H2X6). In words: Selectivity interaction (KinomeScan (DiscoverX)) EUB0001079a HIPK2. The note with it: at 1 µM.
Test [14] deals with SRSF protein kinase 3 (Homo sapiens) (UniProt Q9UPE1). Briefly: Selectivity interaction (KinomeScan (DiscoverX)) EUB0000229b SRPK3. The note with it: at 10 µM.

SMILES strings stand for the structures.

Sequence of Mitogen-activated protein kinase 14 (Q16539 whole entry): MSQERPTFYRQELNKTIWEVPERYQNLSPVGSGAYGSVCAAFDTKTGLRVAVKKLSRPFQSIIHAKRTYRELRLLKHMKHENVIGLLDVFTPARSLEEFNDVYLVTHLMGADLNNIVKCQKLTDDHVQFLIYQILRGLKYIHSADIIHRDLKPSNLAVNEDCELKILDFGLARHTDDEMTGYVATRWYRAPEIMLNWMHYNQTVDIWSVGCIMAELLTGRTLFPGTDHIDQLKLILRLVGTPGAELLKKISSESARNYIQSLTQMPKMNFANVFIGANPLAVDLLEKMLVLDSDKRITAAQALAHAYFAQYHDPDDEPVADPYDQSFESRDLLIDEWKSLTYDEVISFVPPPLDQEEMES
Sequence of Mitogen-activated protein kinase kinase kinase 1 (Q13233 whole entry): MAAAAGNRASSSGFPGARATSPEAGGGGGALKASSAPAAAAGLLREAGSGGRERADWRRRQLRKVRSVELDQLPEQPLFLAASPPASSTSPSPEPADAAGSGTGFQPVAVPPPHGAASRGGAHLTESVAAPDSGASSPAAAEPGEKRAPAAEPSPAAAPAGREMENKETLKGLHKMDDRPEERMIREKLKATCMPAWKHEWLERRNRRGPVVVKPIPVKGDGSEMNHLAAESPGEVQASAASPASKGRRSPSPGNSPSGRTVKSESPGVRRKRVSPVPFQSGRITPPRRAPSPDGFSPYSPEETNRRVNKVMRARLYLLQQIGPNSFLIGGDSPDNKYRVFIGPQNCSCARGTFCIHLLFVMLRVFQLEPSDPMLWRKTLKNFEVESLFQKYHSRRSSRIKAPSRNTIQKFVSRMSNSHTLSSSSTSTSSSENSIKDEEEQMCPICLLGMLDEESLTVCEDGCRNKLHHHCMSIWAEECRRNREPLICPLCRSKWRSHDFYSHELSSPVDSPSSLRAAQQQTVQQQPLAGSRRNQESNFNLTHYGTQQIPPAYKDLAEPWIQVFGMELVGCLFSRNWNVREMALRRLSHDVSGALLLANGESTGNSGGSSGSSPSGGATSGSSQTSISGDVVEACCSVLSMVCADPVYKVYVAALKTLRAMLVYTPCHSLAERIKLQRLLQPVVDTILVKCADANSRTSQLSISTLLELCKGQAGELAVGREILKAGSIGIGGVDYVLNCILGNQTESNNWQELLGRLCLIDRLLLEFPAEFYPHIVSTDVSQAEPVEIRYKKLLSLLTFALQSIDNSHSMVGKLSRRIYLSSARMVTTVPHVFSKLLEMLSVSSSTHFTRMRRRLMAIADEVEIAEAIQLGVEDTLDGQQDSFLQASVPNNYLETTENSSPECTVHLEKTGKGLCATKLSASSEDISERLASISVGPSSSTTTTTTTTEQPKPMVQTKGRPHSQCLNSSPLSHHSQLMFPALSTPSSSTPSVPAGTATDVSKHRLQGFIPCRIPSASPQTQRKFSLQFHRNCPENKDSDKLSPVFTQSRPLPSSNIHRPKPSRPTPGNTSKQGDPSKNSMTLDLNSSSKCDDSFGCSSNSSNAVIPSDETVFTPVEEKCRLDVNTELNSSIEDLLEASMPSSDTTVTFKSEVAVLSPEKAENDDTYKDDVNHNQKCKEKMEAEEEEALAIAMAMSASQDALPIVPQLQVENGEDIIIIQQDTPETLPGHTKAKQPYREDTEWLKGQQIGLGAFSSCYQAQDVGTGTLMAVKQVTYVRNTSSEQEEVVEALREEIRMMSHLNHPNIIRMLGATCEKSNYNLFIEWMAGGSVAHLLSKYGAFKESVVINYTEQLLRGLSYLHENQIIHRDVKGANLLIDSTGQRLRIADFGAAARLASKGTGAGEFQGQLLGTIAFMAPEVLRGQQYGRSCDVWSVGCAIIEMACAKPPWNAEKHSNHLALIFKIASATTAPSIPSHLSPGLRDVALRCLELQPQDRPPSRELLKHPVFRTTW
Sequence of MAP kinase-activated protein kinase 2 (P49137 whole entry, looked up): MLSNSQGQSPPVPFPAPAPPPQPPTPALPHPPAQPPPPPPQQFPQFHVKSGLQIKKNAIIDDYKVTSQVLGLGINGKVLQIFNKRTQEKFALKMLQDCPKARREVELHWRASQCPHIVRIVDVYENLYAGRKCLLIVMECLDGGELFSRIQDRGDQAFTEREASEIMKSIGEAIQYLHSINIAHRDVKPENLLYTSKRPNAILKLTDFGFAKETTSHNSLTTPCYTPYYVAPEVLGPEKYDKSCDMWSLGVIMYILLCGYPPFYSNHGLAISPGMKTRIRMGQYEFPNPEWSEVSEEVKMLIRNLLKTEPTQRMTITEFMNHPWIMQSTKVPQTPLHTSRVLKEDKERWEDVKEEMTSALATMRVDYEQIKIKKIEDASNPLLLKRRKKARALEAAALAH
Sequence of High affinity nerve growth factor receptor (P04629 33-796 limits assumed): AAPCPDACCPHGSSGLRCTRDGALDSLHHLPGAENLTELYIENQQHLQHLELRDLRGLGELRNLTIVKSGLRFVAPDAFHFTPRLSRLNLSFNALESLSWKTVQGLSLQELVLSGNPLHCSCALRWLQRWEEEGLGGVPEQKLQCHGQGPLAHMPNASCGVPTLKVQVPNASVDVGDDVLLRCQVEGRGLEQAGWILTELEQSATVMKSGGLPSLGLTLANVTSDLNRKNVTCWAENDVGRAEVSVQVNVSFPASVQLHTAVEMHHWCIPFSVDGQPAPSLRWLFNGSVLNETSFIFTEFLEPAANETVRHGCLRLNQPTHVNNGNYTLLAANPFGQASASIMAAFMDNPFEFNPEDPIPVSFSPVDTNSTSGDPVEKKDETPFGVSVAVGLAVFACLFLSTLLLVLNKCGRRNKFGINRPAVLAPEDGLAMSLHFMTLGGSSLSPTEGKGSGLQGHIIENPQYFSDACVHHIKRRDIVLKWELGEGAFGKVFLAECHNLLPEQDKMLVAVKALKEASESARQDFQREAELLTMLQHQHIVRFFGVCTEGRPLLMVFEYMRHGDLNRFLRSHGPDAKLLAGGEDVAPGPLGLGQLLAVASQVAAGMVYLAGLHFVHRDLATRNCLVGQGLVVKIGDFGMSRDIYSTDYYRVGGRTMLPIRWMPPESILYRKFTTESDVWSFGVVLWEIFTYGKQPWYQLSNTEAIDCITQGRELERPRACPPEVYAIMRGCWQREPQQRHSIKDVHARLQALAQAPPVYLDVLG
Sequence of Cyclin-dependent kinase 13 (Q14004 whole entry, looked up): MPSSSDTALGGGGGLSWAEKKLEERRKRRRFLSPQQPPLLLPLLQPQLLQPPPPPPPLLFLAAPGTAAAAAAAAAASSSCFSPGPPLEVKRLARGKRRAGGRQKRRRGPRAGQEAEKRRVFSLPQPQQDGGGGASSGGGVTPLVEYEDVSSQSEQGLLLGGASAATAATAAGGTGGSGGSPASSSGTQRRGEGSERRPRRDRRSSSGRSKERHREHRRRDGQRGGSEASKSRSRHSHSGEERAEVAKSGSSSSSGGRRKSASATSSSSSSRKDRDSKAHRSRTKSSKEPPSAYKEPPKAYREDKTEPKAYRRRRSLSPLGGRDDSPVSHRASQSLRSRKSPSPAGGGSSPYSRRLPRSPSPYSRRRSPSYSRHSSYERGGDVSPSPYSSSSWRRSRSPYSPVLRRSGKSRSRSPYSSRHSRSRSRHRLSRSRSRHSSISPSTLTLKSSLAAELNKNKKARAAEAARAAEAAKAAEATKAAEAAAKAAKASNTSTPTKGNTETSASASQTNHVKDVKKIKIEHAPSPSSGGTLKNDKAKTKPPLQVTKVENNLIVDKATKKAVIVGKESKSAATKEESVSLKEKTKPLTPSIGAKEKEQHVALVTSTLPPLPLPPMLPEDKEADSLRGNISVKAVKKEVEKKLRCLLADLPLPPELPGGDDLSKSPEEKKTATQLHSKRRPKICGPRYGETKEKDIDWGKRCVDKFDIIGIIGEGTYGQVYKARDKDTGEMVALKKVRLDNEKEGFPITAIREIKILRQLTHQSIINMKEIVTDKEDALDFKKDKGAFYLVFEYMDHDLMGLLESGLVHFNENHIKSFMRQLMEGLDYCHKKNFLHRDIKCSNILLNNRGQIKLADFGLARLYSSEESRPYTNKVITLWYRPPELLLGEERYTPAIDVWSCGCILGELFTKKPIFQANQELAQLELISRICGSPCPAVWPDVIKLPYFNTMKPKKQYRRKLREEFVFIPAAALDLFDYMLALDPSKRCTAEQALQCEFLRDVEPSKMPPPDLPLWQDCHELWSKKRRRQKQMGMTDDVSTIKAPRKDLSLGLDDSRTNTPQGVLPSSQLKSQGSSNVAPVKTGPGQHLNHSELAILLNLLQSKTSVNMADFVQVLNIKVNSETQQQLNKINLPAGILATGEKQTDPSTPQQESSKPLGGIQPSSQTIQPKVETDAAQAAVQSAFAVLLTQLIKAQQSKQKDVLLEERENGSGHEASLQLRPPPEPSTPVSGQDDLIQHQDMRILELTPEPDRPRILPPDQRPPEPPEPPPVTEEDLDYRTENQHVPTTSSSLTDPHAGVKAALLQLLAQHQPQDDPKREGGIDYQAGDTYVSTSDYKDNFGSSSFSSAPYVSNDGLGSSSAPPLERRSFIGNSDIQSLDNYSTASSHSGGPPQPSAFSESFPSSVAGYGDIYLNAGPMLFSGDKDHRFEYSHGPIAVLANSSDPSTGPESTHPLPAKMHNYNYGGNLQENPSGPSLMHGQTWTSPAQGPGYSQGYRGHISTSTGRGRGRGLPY

As to `CCN(CC)CCCCNc1ncc2cc(-c3cc(OC)cc(OC)c3)c(NC(=O)NC(C)(C)C)nc2n1`, the % of control in test [1] turned out to be 100%.

Turning to `O=C(NOC[C@H](O)CO)c1ccc(F)c(F)c1Nc1ccc(I)cc1F`, the % of control in test [2] came out at 100%; in [3], 84%.

For the compound `Cc1cc([C@@H](C)Nc2ccccc2C(=O)O)c2nc(N3CCOCC3)cc(=O)n2c1` [AZD-6482], the % of control turned out to be 96% in test [4] and 100% in test [5].

`CC[C@@H]1[C@H](F)C(=O)N[C@@H]1COc1nccc2cc(C(N)=O)c(OC)cc12` [ZIMLOVISERTIB]: the % of inhibition at Activated CDC42 kinase 1 is -1.67%.

Consider `C=CC(=O)Nc1cc(-n2c(=O)ccc3cnc4ccc(-c5ccc(NS(C)(=O)=O)cc5)cc4c32)ccc1C`, for which the % of control in test [6] (at 1 µM) and in test [6] (at 10 µM) was 100% each time.

Turning to `C=CC(=O)Nc1cccc(C(=O)Nc2ccc(Nc3cc(-c4[nH]c(SC)nc4C)ccn3)cc2)c1`, the % of control worked out at 90% in test [7] (at 1 µM) and 67% in test [7] (at 5 µM).

In general, IC50 refers to the concentration that inhibits the measured activity by half. A higher IC50 goes with weaker potency. Consider `CCc1cccc(CC)c1NC(=O)c1nn(C)c2c1CCc1cnc(Nc3ccc(C(=O)NC4CCN(C)CC4)cc3OC(F)(F)F)nc1-2`, for which the IC50 in test [8] is above 10 µM.

`COc1cc(Nc2nc(C)cc(-c3cnn4nc(OC)ccc34)n2)cc(C(F)(F)F)c1` had a % of control in test [9] of 86%.

Regarding `CN(C)CCOc1ccc(-c2nc(-c3ccncc3)c(-c3ccc4c(c3)CC/C4=N\O)[nH]2)cc1`, the results for the % of control in test [10] and in test [11] were 92% and 88%, respectively.

The compound `CCC(=O)N1CCN(c2ccc(-n3c(=O)ccc4cnc5ccc(-c6cnc7ccccc7c6)cc5c43)cc2C(F)(F)F)CC1` returned a % of control in test [12] of 100%.

For `Nc1cnc(N2CCc3cc(S(=O)(=O)Nc4c(F)cc(Cl)cc4F)cc(N4CCCC4=O)c32)nc1` [TP-020n], the % of control in [13] amounted to 100%.

`COc1cc(N(C)c2ccnc3ccc(C(F)(F)F)cc23)cc(OC)c1OC` registered a % binding in [14] of 86%.
